Assays:
Assay in all cases: Test D controlled growth environment herbicide test, pre- and postemergence
Assay type in all cases: in vivo
[1] = test system: barley, winter (winter barley, Hordeum vulgare)
Procedure, shortened: (§1)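 Rating is visual, 0–100 scale (100 = complete control), made against untreated plants 14–21 d after treatment in controlled growth conditions. Postemergence sprays went onto 1- to 4-leaf plants in peat medium; preemergence sprays onto silt loam after sowing; formulation included a surfactant.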

[2] = test system: blackgrass (Alopecurus myosuroides)
Procedure, shortened: as §1

[3] = test system: bluegrass (annual bluegrass, Poa annua)
Procedure, shortened: as §1

[4] = test system: bromegrass, downy (downy bromegrass, Bromus tectorum)
Procedure, shortened: as §1

[5] = test system: chamomile (scentless chamomile, Matricaria inodora)
Procedure, shortened: as §1

[6] = test system: chickweed (common chickweed, Stellaria media)
Procedure, shortened: as §1

[7] = test system: field violet (Viola arvensis)
Procedure, shortened: as §1

[8] = test system: foxtail, green (green foxtail, Setaria viridis)
Procedure, shortened: as §1

[9] = test system: galium (catchweed bedstraw, Galium aparine)
Procedure, shortened: as §1

[10] = test system: kochia (Kochia scoparia)
Procedure, shortened: as §1

[11] = test system: lambsquarters (Chenopodium album)
Procedure, shortened: as §1

[12] = test system: pigweed (Amaranthus retroflexus)
Procedure, shortened: as §1

[13] = test system: wheat, winter (winter wheat, Triticum aestivum)
Procedure, shortened: as §1

[14] = Postemergence, 31 g ai/ha, scale 0 to 100 (0 no effect, 100 complete control)
[15] = Postemergence, 125 g ai/ha, visual rating on scale 0 (no effect) to 100 (complete control), 14 to 21 d
[16] = Postemergence, 250 g ai/ha, scale 0 to 100 (0 no effect, 100 complete control)
[17] = Preemergence, 62 g ai/ha, scale 0 to 100 (0 no effect, 100 complete control)
[18] = Preemergence, 125 g ai/ha, scale 0 to 100 (0 no effect, 100 complete control)
[19] = Preemergence, 250 g ai/ha, scale 0 to 100, 0 no effect, 100 complete control
[20] = postemergence, 62 g ai/ha, scale 0 to 100, 0 no effect, 100 complete control

Cc1nn(C)c(=O)c(-c2cccc3ccc(Br)cc23)c1O [Compound 126]
98: Plant response rating, Chamomile [5, 15] | Plant response rating (scale of 0 to 100), Chickweed ([6]; Preemergence, 62 g ai/ha) | Plant response rating, Chickweed [6, 20] | Plant response rating, Galium [9, 19] | Plant response rating, Lambsquarters [11, 20] | Pigweed plant response rating [12, 14] | Plant response rating, Pigweed [12, 15] | Plant response rating, Pigweed [12, 16] | Plant response rating (scale of 0 to 100), Pigweed ([12]; Preemergence, 31 g ai/ha)
70: Chamomile plant response rating [5, 14] | Plant response rating (scale of 0 to 100), Chickweed ([6]; Preemergence, 31 g ai/ha) | Plant response rating (scale of 0 to 100), Galium ([9]; Preemergence, 62 g ai/ha)
5: Plant response rating, Barley, Winter [1, 19] | Plant response rating, Barley, Winter [1, 20] | Plant response rating (scale of 0 to 100), Bluegrass ([3]; Preemergence, 31 g ai/ha) | Plant response rating, Bluegrass [3, 17] | Bromegrass, Downy plant response rating [4, 14]
100: Plant response rating, Chamomile [5, 16] | Plant response rating (scale of 0 to 100), Chamomile ([5]; Preemergence, 62 g ai/ha) | Plant response rating, Chamomile [5, 18] | Plant response rating, Chamomile [5, 19] | Plant response rating, Chickweed [6, 15] | Plant response rating, Chickweed [6, 16] | Plant response rating, Chickweed [6, 18] | Plant response rating, Chickweed [6, 19] | Plant response rating, Field Violet [7, 16] | Plant response rating, Field Violet [7, 18] | Plant response rating, Field Violet [7, 19] | Plant response rating, Galium [9, 15] | Plant response rating, Galium [9, 16] | Plant response rating, Galium [9, 20] | Plant response rating, Kochia [10, 16] | Plant response rating, Lambsquarters [11, 15] | Plant response rating, Lambsquarters [11, 16] | Plant response rating (scale of 0 to 100), Lambsquarters ([11]; Preemergence, 31 g ai/ha) | Plant response rating (scale of 0 to 100), Lambsquarters ([11]; Preemergence, 62 g ai/ha) | Plant response rating, Lambsquarters [11, 19] | Plant response rating (scale of 0 to 100), Pigweed ([12]; Preemergence, 62 g ai/ha) | Plant response rating, Pigweed [12, 18] | Plant response rating, Pigweed [12, 19] | Plant response rating, Pigweed [12, 20]
25: Plant response rating (scale of 0 to 100), Blackgrass ([2]; Preemergence, 31 g ai/ha) | Plant response rating, Bromegrass, Downy [4, 16] | Plant response rating, Foxtail, Green [8, 15] | Plant response rating, Foxtail, Green [8, 16] | Plant response rating, Foxtail, Green [8, 18]
50: Plant response rating (scale of 0 to 100), Galium ([9]; Preemergence, 31 g ai/ha)
75: Kochia plant response rating [10, 14] | Plant response rating, Kochia [10, 18] | Plant response rating, Lambsquarters [11, 18]
85: Plant response rating (scale of 0 to 100), Chamomile ([5]; Preemergence, 31 g ai/ha) | Field Violet plant response rating [7, 14] | Plant response rating (scale of 0 to 100), Field Violet ([7]; Preemergence, 31 g ai/ha) | Plant response rating (scale of 0 to 100), Field Violet ([7]; Preemergence, 62 g ai/ha) | Plant response rating, Field Violet [7, 20] | Plant response rating, Galium [9, 18]
40: Plant response rating, Bluegrass [3, 19]
30: Plant response rating, Blackgrass [2, 15] | Plant response rating, Bluegrass [3, 18] | Plant response rating, Bromegrass, Downy [4, 19]
80: Chickweed plant response rating [6, 14] | Plant response rating, Kochia [10, 20]
55: Plant response rating, Blackgrass [2, 18]
20: Plant response rating, Blackgrass [2, 20] | Plant response rating, Bromegrass, Downy [4, 15] | Plant response rating, Bromegrass, Downy [4, 18] | Plant response rating (scale of 0 to 100), Foxtail, Green ([8]; Preemergence, 31 g ai/ha) | Plant response rating (scale of 0 to 100), Foxtail, Green ([8]; Preemergence, 62 g ai/ha) | Plant response rating (scale of 0 to 100), Kochia ([10]; Preemergence, 62 g ai/ha)
65: Plant response rating, Blackgrass [2, 19]
90: Plant response rating, Field Violet [7, 15] | Galium plant response rating [9, 14] | Lambsquarters plant response rating [11, 14]
95: Plant response rating, Chamomile [5, 20] | Plant response rating, Kochia [10, 15] | Plant response rating, Kochia [10, 19]
10: Plant response rating, Bluegrass [3, 20] | Plant response rating, Bromegrass, Downy [4, 20] | Foxtail, Green plant response rating [8, 14] | Plant response rating, Foxtail, Green [8, 20] | Plant response rating (scale of 0 to 100), Kochia ([10]; Preemergence, 31 g ai/ha)
0: Barley, Winter plant response rating [1, 14] | Plant response rating, Barley, Winter [1, 15] | Plant response rating, Barley, Winter [1, 16] | Plant response rating (scale of 0 to 100), Barley, Winter ([1]; Preemergence, 31 g ai/ha) | Plant response rating, Barley, Winter [1, 17] | Plant response rating, Barley, Winter [1, 18] | Bluegrass plant response rating [3, 14] | Plant response rating (scale of 0 to 100), Bromegrass, Downy ([4]; Preemergence, 31 g ai/ha) | Plant response rating, Bromegrass, Downy [4, 17] | Wheat, Winter plant response rating [13, 14] | Plant response rating, Wheat, Winter [13, 15] | Plant response rating, Wheat, Winter [13, 16] | Plant response rating (scale of 0 to 100), Wheat, Winter ([13]; Preemergence, 31 g ai/ha) | Plant response rating (scale of 0 to 100), Wheat, Winter ([13]; Preemergence, 62 g ai/ha) | Plant response rating, Wheat, Winter [13, 18] | Plant response rating, Wheat, Winter [13, 19] | Plant response rating, Wheat, Winter [13, 20]
45: Plant response rating, Blackgrass [2, 16] | Plant response rating, Blackgrass [2, 17] | Plant response rating, Foxtail, Green [8, 19]
15: Blackgrass plant response rating [2, 14] | Plant response rating, Bluegrass [3, 15] | Plant response rating, Bluegrass [3, 16]

From patent US10597388B2, “Pyridazinone herbicides” (FMC CORPORATION, priority 2014, dated 2020)
